Data taken from US20220402862A1 (Intellia Therapeutics, Inc., priority 2019, published 2022).

Columns and labels:
Type in all cases: physicochemical
[1] = pKa measurement of unformulated amine lipid (fluorescence, method of Jayaraman et al.); details: 100 μM in 0.1 M phosphate buffer, pH 2.0-12.0
Experimental: The pKa of each amine lipid was determined according to the method in Jayaraman, et al. (Angewandte Chemie, 2012) with the following adaptations. […] Lipid was diluted to 100 μM in 0.1 M phosphate buffer (Boston Bioproducts) where the pH ranged from 2.0-12.0. Fluorescence intensity was measured using excitation and emission wavelengths of 321 nm and 448 nm.

[2] = Dynamic light scattering of LNPs: Z-average diameter, number average diameter, PDI; details: LNP, sg:mRNA 1:1, N/P about 6, 50/9/38/3; Table 2, Experiments 2-20
Experimental: Dynamic Light Scattering (“DLS”) is used to characterize the polydispersity index (“PDI”) and size of the LNPs of the present disclosure. DLS measures the scattering of light that results from subjecting a sample to a light source. PDI, as determined from DLS measurements, represents the distribution of particle size (around the mean particle size) in a population, with a perfectly uniform population having a PDI of zero.
LNP compositions are analyzed for average particle size, polydispersity index (PDI), total RNA content, encapsulation efficiency of RNA, and zeta potential. LNP compositions may be further characterized by lipid analysis, AF4-MALS, NTA, and/or cryo-EM. Average particle size and polydispersity are measured by dynamic light scattering (DLS) using a Malvern Zetasizer DLS instrument or Wyatt NanoStar. LNP samples were diluted with PBS buffer prior to being measured by DLS. Z-average diameter which is an intensity-based measurement of average particle size is reported along with number average diameter and PDI. A Malvern Zetasizer or Wyatt NanoStar instrument is also used to measure the zeta potential of the LNP. Samples are diluted 1:17 (50 μL into 800 μL) in 0.1× PBS, pH 7.4 prior to measurement.

[3] = RNA encapsulation efficiency of LNPs (Ribogreen fluorescence assay); details: LNP, sg:mRNA 1:1, N/P about 6, amine lipid/DSPC/cholesterol/PEG-2k-DMG 50/9/38/3; Table 2, Experiments 2-20
Experimental: A fluorescence-based assay (Ribogreen®, ThermoFisher Scientific) is used to determine total RNA concentration and free RNA. Encapsulation efficiency is calculated as (Total RNA-Free RNA)/Total RNA. LNP samples are diluted appropriately with 1× TE buffer containing 0.2% Triton-X 100 to determine total RNA or 1× TE buffer to determine free RNA. Standard curves are prepared by utilizing the starting RNA solution used to make the compositions and diluted in 1× TE buffer +/− 0.2% Triton-X 100. Diluted RiboGreen® dye (according to the manufacturer's instructions) is then added to each of the standards and samples and allowed to incubate for approximately 10 minutes at room temperature, in the absence of light. A SpectraMax M5 Microplate Reader (Molecular Devices) is used to read the samples with excitation, auto cutoff and emission wavelengths set to 488 nm, 515 nm, and 525 nm respectively. Total RNA and free RNA are determined from the appropriate standard curves.
Encapsulation efficiency is calculated as (Total RNA-Free RNA)/Total RNA. The same procedure may be used for determining the encapsulation efficiency of a DNA-based cargo component. In a fluorescence-based assay, for single-strand DNA Oligreen Dye may be used, and for double-strand DNA, Picogreen Dye. Alternatively, the total RNA concentration can be determined by a reverse-phase ion-pairing (RP-IP) HPLC method. Triton X-100 is used to disrupt the LNPs, releasing the RNA. The RNA is then separated from the lipid components chromatographically by RP-IP HPLC and quantified against a standard curve using UV absorbance at 260 nm.

Row | SMILES | pKa [1] | Number mean (nm) [2] | PDI [2] | Z-avg (nm) [2] | Encapsulation (%) [3]
1 | CCCCC/C=C\C/C=C\CCCCCCCC(=O)OCC(COC(=O)CC(CCCCCCCC)CCCCCCCC)COC(=O)OCCCN(CC)CC (stereo not drawn) [Compound 66, 3-(((3-(diethylamino)propoxy)carbonyl)oxy)-2-(((3-octylundecanoyl)oxy)methyl)propyl (9Z,12Z)-octadeca-9,12-dienoate] | 6.06 | 44.03 nm | 0.071 | 58.54 nm | 98%
2 | CCCCC/C=C\C/C=C\CCCCCCCC(=O)OCC(COC(=O)CCCCC(OCCCCCCCC)OCCCCCCCC)COC(=O)OCCCN(CC)CC (stereo not drawn) [Compound 62, 3-((6,6-bis(octyloxy)hexanoyl)oxy)-2-((((3-(diethylamino)propoxy)carbonyl)oxy)methyl)propyl (9Z,12Z)-octadeca-9,12-dienoate] | 6.03 | 59.35 nm | 0.044 | 73.46 nm | 98%
3 | CCCCC/C=C\C/C=C\CCCCCCCC(=O)OCC(COC(=O)CCCCCC(=O)OC(CCCCCCCC)CCCCCCCC)COC(=O)OCCCN(CC)CC (stereo not drawn) [Compound 64, 1-(3-(((3-(diethylamino)propoxy)carbonyl)oxy)-2-((((9Z,12Z)-octadeca-9,12-dienoyl)oxy)methyl)propyl) 7-(heptadecan-9-yl) heptanedioate] | 6.08 | 69.25 nm | 0.032 | 85.16 nm | 98%
4 | CCCCCCCCOC(CCC(=O)OCC(COC(=O)CCCCCCCCCCC(=O)OCCCCC)COC(=O)OCCCN(CC)CC)OCCCCCCCC (stereo not drawn) [Compound 60, 1-(3-((4,4-bis(octyloxy)butanoyl)oxy)-2-((((3-(diethylamino)propoxy)carbonyl)oxy)methyl)propyl) 12-pentyl dodecanedioate] | 6.38 | 84.46 nm | 0.022 | 104.2 nm | 97%
5 | CCCCC/C=C\C/C=C\CCCCCCCC(=O)OCC(COC(=O)CCCC(=O)OC(CCCCCCCC)CCCCCCCC)COC(=O)OCCCN(CC)CC (stereo not drawn) [Compound 63, 3-(((3-(diethylamino)propoxy)carbonyl)oxy)-2-((((9Z,12Z)-octadeca-9,12-dienoyl)oxy)methyl)propyl heptadecan-9-yl glutarate] | 6.09 | 64.05 nm | 0.019 | 79.37 nm | 98%
6 | CCCCCCCCOC(=O)CCCCCCCC(=O)OCC(COC(=O)CCC(OCCCCCCCC)OCCCCCCCC)COC(=O)OCCCN(CC)CC (stereo not drawn) [Compound 58, 1-(3-((4,4-bis(octyloxy)butanoyl)oxy)-2-((((3-(diethylamino)propoxy)carbonyl)oxy)methyl)propyl) 9-octyl nonanedioate] | 6.4 | 72.42 nm | 0.029 | 89.07 nm | 95%
7 | CCCCCCCCOC(CCC(=O)OCC(COC(=O)CCCCCCCC(=O)OCCCCCC)COC(=O)OCCCN(CC)CC)OCCCCCCCC (stereo not drawn) [Compound 57, 1-(3-((4,4-bis(octyloxy)butanoyl)oxy)-2-((((3-(diethylamino)propoxy)carbonyl)oxy)methyl)propyl) 9-hexyl nonanedioate] | 6.59 | 83.41 nm | 0.011 | 102 nm | 89%
8 | CCCCC/C=C\C/C=C\CCCCCCCC(=O)OCC(COC(=O)OCCCN(CC)CC)COC(=O)C(CCCCCC)CCCCCCCC (stereo not drawn) [Compound 65, 3-(((3-(diethylamino)propoxy)carbonyl)oxy)-2-(((2-hexyldecanoyl)oxy)methyl)propyl (9Z,12Z)-octadeca-9,12-dienoate] | 5.88 | 55.76 nm | 0.034 | 70.19 nm | 98%

Next, values leading:

Row | pKa [1] | Number mean (nm) [2] | PDI [2] | Z-avg (nm) [2] | Encapsulation (%) [3] | SMILES
9 | 6.02 | 66.78 nm | 0.017 | 83.47 nm | 98% | CCCCCC/C=C\COC(=O)CCCCCCCCCCCC(=O)OCC(COC(=O)CCC(OCCCCCCCC)OCCCCCCCC)COC(=O)OCCCN(CC)CC (stereo not drawn) [Compound 70, (Z)-1-(3-((4,4-bis(octyloxy)butanoyl)oxy)-2-((((3-(diethylamino)propoxy)carbonyl)oxy)methyl)propyl) 13-(non-2-en-1-yl) tridecanedioate]
10 | 6.18 | 68.12 nm | 0.026 | 85.11 nm | 98% | CCCCCC/C=C\COC(=O)CCCCCCCCCC(=O)OCC(COC(=O)CCC(OCCCCCCCC)OCCCCCCCC)COC(=O)OCCCN(CC)CC (stereo not drawn) [Compound 69, (Z)-1-(3-((4,4-bis(octyloxy)butanoyl)oxy)-2-((((3-(diethylamino)propoxy)carbonyl)oxy)methyl)propyl) 11-(non-2-en-1-yl) undecanedioate]
11 | 6.19 | 56.56 nm | 0.025 | 69.85 nm | 99% | CCCCC/C=C\C/C=C\CCCCCCCC(=O)OCC(COC(=O)CCCC(CCCCCCC)CCCCCCC)COC(=O)OCCCN(CC)CC (stereo not drawn) [Compound 67, 3-(((3-(diethylamino)propoxy)carbonyl)oxy)-2-(((5-heptyldodecanoyl)oxy)methyl)propyl (9Z,12Z)-octadeca-9,12-dienoate]
12 | 6.4 | 57 nm | 0.02 | 70 nm | 99% | CCCCC/C=C\C/C=C\CCCCCCCC(=O)OCC(COCCN(CC)CC)COC(=O)CCC(OCCCCCCCC)OCCCCCCCC (stereo not drawn) [Compound 98, 3-((4,4-bis(octyloxy)butanoyl)oxy)-2-((2-(diethylamino)ethoxy)methyl)propyl (9Z,12Z)-octadeca-9,12-dienoate]
13 | 7.1 | 74 nm | 0.003 | 89 nm | 99% | CCCCC/C=C\C/C=C\CCCCCCCC(=O)OCC(COCCCN(CC)CC)COC(=O)CCC(OCCCCCCCC)OCCCCCCCC (stereo not drawn) [Compound 99, 3-((4,4-bis(octyloxy)butanoyl)oxy)-2-((3-(diethylamino)propoxy)methyl)propyl (9Z,12Z)-octadeca-9,12-dienoate]
14 | 6.1 | 60.04 nm | 0.008 | 72.71 nm | 98% | CCCCC/C=C\C/C=C\CCCCCCCC(=O)OCC(COC(=O)CCCCCC(CCCCCC)CCCCCC)COC(=O)OCCCN(CC)CC (stereo not drawn) [Compound 68, 3-(((3-(diethylamino)propoxy)carbonyl)oxy)-2-(((7-hexyltridecanoyl)oxy)methyl)propyl (9Z,12Z)-octadeca-9,12-dienoate]
15 | 6.09 | 55.14 nm | 0.037 | 68.66 nm | 98% | CCCCC/C=C\C/C=C\CCCCCCCC(=O)OCC(COC(=O)CCC(OCCCCCCCC)OCCCCCCCC)OC(=O)OCCCN(CC)CC (stereo not drawn) [Compound 97, 3-((4,4-bis(octyloxy)butanoyl)oxy)-2-(((3-(diethylamino)propoxy)carbonyl)oxy)propyl (9Z,12Z)-octadeca-9,12-dienoate]
